Measured values from US11827629B2, “CDGSH iron sulfur domain 2 activators and use thereof” (National Health Research Institutes, priority 2021, dated 2023).

Key:
[1] = test system: Cisd2 promoter with firefly luciferase reporter; assay: Cisd2-luciferase reporter assay in HEK293-CISD2 cells; format: cell-based; settings: Homo sapiens, 24 hours incubation, luciferase luminescence
Summary of the method: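 HEK293 cells stably carrying Cisd2 promoter-firefly luciferase, seeded at 3×10^3 cells/well, exposed to compounds 24 h at 37 °C; luminescence read after 5 min ONE-Glo at room temperature. EC50 reported in classes: A <1 μM, B 1-5 μM, C 5-10 μM.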

[2] = test system: Male C57BL/6 mice; assay: In vivo protection against doxorubicin-induced cardiotoxicity (ECG, echocardiography); settings: 1 mg/kg i.p. twice a day for 2 days, doxorubicin 25 mg/kg i.p., ECG day 4, heart echo day 5
Experimental: Compound 28 was evaluated for protecting against doxorubicin-induced cardiotoxicity in mice.
Male C57BL/6 mice between 7 and 8 months old were treated with Compound 28 (at a dosage of 1 mg/kg) or a vehicle (1.5 wt % of DMF and 3 wt % of Cremophor® EL in PBS) via intraperitoneal injection (i.p.) twice a day for 2 days. At day 0, 1 hour after the treatment with Compound 28, doxorubicin (25 mg/kg, i.p.) or another vehicle (10% DMSO in normal saline) was injected into mice.
Electrocardiogram (ECG) and heart echo on day 4 and day 5 respectively were used as indications of cardiac function. […]
Functional test of heart using ECG was performed as described in Yeh et al., PLoS Biol. 2019, 17, e3000508. […] Continuous 5-minute ECGs were obtained using subcutaneous electrodes attached at the four limbs and recorded with PowerLab® data acquisition system (model ML866, ADInstruments, Colorado Springs, CO) and Animal Bio Amp® (model ML136, ADInstruments). ECG analysis was performed in an unbiased fashion where 1500 beats were analyzed using LabChart® 7 Pro version 7.3.1 (ADInstruments, Inc). […]
Transthoracic mouse echocardiography was used to provide noninvasive imaging of the heart on a VisualSonics® VeVo® 2100 imaging system (VisualSonics, Toronto, Ontario, Canada). […] Body temperature was maintained and monitored at 36° C. to 37° C. on a heated pad (TC-1000, CWE Inc. USA). ECGs were continuously monitored. […]

[3] = test system: Male C57BL/6 mice; assay: In vivo doxorubicin-induced cachexia and hepatotoxicity; settings: 1 mg/kg i.p. twice a day for 2 days, doxorubicin 25 mg/kg i.p.
Experimental: Compound 28 was used in rescuing doxorubicin-induced cachexia and hepatotoxicity in the following in vivo study.
Male C57BL/6 mice between 7 and 8 months were pretreated with Compound 28 (1 mg/kg) or a vehicle (1.5 wt % of DMF and 3 wt % of Cremophor® EL in PBS) via intraperitoneal injection (i.p.) twice a day for 2 days. At day 0, 1 hour after the treatment with compound 28, doxorubicin (25 mg/kg, i.p.) or another vehicle (10% DMSO in normal saline) were injected into mice.
Different tissues including livers, cardiac muscle (left ventricle), skeletal muscle (gastrocnemius), brown adipose tissue, and white adipose tissue were weighted and collected after mice were sacrificed. The tissues were fixed with 10% formalin at 4° C. overnight, processed in a tissue processor, and then embedded in paraffin. H&E of tissue sections (3-4 m) were carried out by a standard protocol as described above.

SMILES: O=C(CS(=O)(=O)c1nccs1)N1Cc2ccccc2C1 [Compound 28, 1-(1,3-dihydro-2H-isoindol-2-yl)-2-(1,3-thiazol-2-ylsulfonyl)ethanone]
- EC50 [1]: < 1000 nM
- protection against doxorubicin-induced cardiotoxicity [2]: protected against doxorubicin-induced cardiotoxicity
- effect on doxorubicin-induced hepatotoxicity [3]: alleviated doxorubicin-induced hepatotoxicity
- effect on doxorubicin-induced cachexia ([3]; tissue weights): alleviated doxorubicin-induced hepatotoxicity and cachexia
